# Literature values in US8062633B2, “Surface sanitizer for the food industry based on three new lactic acid bacteria that have antagonistic action against Listeria monocytogenes, the microorganism that causes listeriosis in humans” (Universidad Austral de Chile, priority 2009, dated 2011).
# Experiments:
# [1] = tested on: Listeria monocytogenes Scott A; settings: tofu stored at 10° C.
# L. monocytogenes = settings: 48 h of incubation
substance,measurement,setting,value
nisin,development of L. monocytogenes in tofu,[1],Listeria started to grow again from the second day onward
same,regrowth of L. monocytogenes in culture broth,L. monocytogenes,developed resistance and grew again after 48 h
